Laboratory results as given in patent US7781591B2, “Substituted 3-cyanopyridines as protein kinase inhibitors” (Wyeth LLC, priority 2006, dated 2010).

What follows are compounds tested against T1, purified recombinant full length PKC theta (Panvera, P2996) (Homo sapiens, UniProt Q04759) (assay: Radioactive kinase assay for inhibition of full length (FL) PKCθ). Settings: average value.
T1 construct: purified recombinant full length PKC theta (Panvera, P2996); purchased Panvera P2996
T1 sequence (Q04759 whole entry): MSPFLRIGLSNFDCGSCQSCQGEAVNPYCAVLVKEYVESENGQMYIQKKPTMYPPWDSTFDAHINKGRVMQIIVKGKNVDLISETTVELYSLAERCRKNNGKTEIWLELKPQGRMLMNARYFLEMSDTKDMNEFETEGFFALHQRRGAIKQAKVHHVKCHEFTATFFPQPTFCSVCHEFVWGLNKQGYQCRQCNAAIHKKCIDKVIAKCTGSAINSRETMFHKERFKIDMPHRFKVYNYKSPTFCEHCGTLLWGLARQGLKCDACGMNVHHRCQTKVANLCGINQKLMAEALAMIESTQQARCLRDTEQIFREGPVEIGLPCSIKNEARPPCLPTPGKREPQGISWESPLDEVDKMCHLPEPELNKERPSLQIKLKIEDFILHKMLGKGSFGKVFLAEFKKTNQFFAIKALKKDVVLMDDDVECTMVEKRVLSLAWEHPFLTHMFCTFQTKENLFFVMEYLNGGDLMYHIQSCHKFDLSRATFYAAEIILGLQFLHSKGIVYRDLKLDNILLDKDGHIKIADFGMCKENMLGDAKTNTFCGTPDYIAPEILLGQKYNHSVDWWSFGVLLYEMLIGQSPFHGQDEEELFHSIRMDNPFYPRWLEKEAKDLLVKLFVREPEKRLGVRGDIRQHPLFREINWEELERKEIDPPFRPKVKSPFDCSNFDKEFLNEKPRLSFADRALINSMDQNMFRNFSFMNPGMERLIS
Format: biochemical
Method: This assay is based on the phosphorylation of a biotinylated substrate by a kinase utilizing radiolabeled ATP (ATP γ P33). The substrate was a biotinylated peptide with a sequence of biotin-[…]-C(O)NH2. […] The assay buffer was composed of 100 mM Hepes, pH7.5, 2 mM MgCl2, 20 mM β-glycerophosphate and 0.008% TritonX 100. A reaction mixture of ATP, ATP γ P33 (PerkinElmer), DTT, and the enzyme was prepared in the assay buffer and added to a 96-well polypropylene plate. The compound (diluted in DMSO in a separate 96-well polypropylene plate) was added to the reaction mixture and incubated at room temperature. Following the incubation, the peptide substrate was added to the reaction mixture to initiate the enzymatic reaction. The reaction was terminated with the addition of a stop solution (100 mM EDTA, 0.2% TritonX100, and 20 mM NaHPO4) and transferred from the assay plate to a washed streptavidin-coated 96-well scintiplate (PerkinElmer). […] Counts were recorded for each well as corrected counts per minute (CCPM). The counts were considered corrected because they were adjusted according to a P33 normalization protocol, which corrects for efficiency and background differences between the instrument detectors (software version 4.40.01).
A Radioactive Kinase Assay for Inhibition of Full Length (FL) PKCθ Inhibitors
This assay differs from what was described above in that the enzyme used was purified recombinant full length PKC theta (Panvera, P2996).
`N#Cc1cncc(-c2cccc(OCCN3CCOCC3)c2)c1Nc1cccc2[nH]ccc12` [Compound 170, 4-(1H-indol-4-ylamino)-5-[3-(2-morpholin-4-ylethoxy)phenyl]nicotinonitrile] was tested, and the IC50 was 20 nM. Work on `N#Cc1cncc(-c2cccc(OCCN3CCCC3)c2)c1Nc1ccc2cc[nH]c2c1` [Compound 172, 4-(1H-indol-6-ylamino)-5-[3-(2-pyrrolidin-1-ylethoxy)phenyl]nicotinonitrile] yielded an IC50 of 2590 nM. Work on `CC(=O)Nc1cccc(-c2cncc(C#N)c2Nc2ccc3[nH]ccc3c2)c1` [Compound 152, N-{3-[5-cyano-4-(1H-indol-5-ylamino)pyridin-3-yl]phenyl}acetamide] yielded an IC50 of 1940 nM. With `N#Cc1cncc(-c2ccccc2-c2ccccc2Cl)c1Nc1ccc2[nH]ccc2c1` [Compound 143, 5-(2′-chlorobiphenyl-2-yl)-4-(1H-indol-5-ylamino)nicotinonitrile] the IC50 was 910 nM. Work on `N#Cc1cncc(-c2cccc(-c3cccc(N)c3)c2)c1Nc1ccc2[nH]ccc2c1` [Compound 117, 5-(3′-aminobiphenyl-3-yl)-4-(1H-indol-5-ylamino)nicotinonitrile] yielded an IC50 of 140 nM. Work on `N#Cc1cncc(-c2cccc(OCc3ccccc3)c2)c1Nc1ccc2[nH]ccc2c1` [Compound 194, 5-[3-(benzyloxy)phenyl]-4-(1H-indol-5-ylamino)nicotinonitrile] yielded an IC50 of 50 nM. `COc1ccc(-c2cncc(C#N)c2Oc2ccc3[nH]ccc3c2)cc1OC` [Compound 220, 5-(3,4-dimethoxyphenyl)-4-(1H-indol-5-yloxy)nicotinonitrile] was tested, and the IC50 was > 20000 nM. In the case of `N#Cc1cncc(-c2cccc(-c3ccc(C(=O)O)cc3)c2)c1Nc1ccc2[nH]ccc2c1` [Compound 134, 3′-[5-cyano-4-(1H-indol-5-ylamino)pyridin-3-yl]biphenyl-4-carboxylic acid], the IC50 is reported as 390 nM. For `N#Cc1cncc(-c2cccc(OCCN3CCOCC3)c2)c1Nc1ccc2[nH]ccc2c1` [Compound 175, 4-(1H-indol-5-ylamino)-5-[3-(2-morpholin-4-ylethoxy)phenyl]nicotinonitrile], the IC50 was 100 nM. Work on `COCCOc1ccc(-c2cncc(C#N)c2Nc2ccc3cc[nH]c3c2)cc1OC` [Compound 161, 4-(1H-indol-6-ylamino)-5-[3-methoxy-4-(2-methoxyethoxy)phenyl]nicotinonitrile] yielded an IC50 of 5500 nM. `N#Cc1ccc(-c2cccc(-c3cncc(C#N)c3Nc3ccc4[nH]ccc4c3)c2)cc1` [Compound 118, 5-(4′-cyanobiphenyl-3-yl)-4-(1H-indol-5-ylamino)nicotinonitrile] showed an IC50 of 90 nM. For `N#Cc1cncc(-c2cccc(-c3ccsc3)c2)c1Nc1ccc2[nH]ccc2c1` [Compound 141, 4-(1H-indol-5-ylamino)-5-[3-(3-thienyl)phenyl]nicotinonitrile], the IC50 was 90 nM. In the case of `N#Cc1cncc(-c2cccc(OCCCl)c2)c1Nc1ccc2cc[nH]c2c1` [Compound 166, 5-[3-(2-chloroethoxy)phenyl]-4-(1H-indol-6-ylamino)nicotinonitrile], the IC50 is reported as 3830 nM. With `COCCOc1ccc(-c2cncc(C#N)c2Nc2ccc3ncsc3c2)cc1OC` [Compound 162, 4-(1,3-benzothiazol-6-ylamino)-5-[3-methoxy-4-(2-methoxyethoxy)phenyl]nicotinonitrile] the IC50 was 15000 nM. With `N#Cc1cncc(-c2cccc(-c3cccnc3)c2)c1Nc1ccc2[nH]ccc2c1` [Compound 137, 4-(1H-indol-5-ylamino)-5-(3-pyridin-3-ylphenyl)nicotinonitrile] the IC50 was 70 nM. `Cc1cccc(-c2cccc(-c3cncc(C#N)c3Nc3ccc4[nH]ccc4c3)c2)c1` [Compound 127, 4-(1H-indol-5-ylamino)-5-(3′-methylbiphenyl-3-yl)nicotinonitrile] showed an IC50 of 290 nM. `COCCOc1cc(-c2cncc(C#N)c2Nc2ccc3ncsc3c2)ccc1OC` [Compound 156, 4-(1,3-benzothiazol-6-ylamino)-5-[4-methoxy-3-(2-methoxyethoxy)phenyl]nicotinonitrile] was tested, and the IC50 was > 20000 nM.
